Measured values published in article PMC6568410, “A scorpion venom peptide derivative BmKn‒22 with potent antibiofilm activity against Pseudomonas aeruginosa” (PLoS ONE, 2019).
Where no end group is shown, it is not given here.

Key:
Assay type in all cases: cell-based, Pseudomonas aeruginosa
[1] = system: P. aeruginosa PAO1 biofilm formation; assay: Biofilm formation assay, crystal violet staining
Method: (§1) The effect of BmKn‒2 peptide and derivatives on biofilm formation of P. aeruginosa PAO1 was determined according to the method published previously with some modifications. Briefly, 100 μL of the test peptides was plated into the wells of flat-bottomed 96-well microtiter plates (Nunc™, Roskilde, Denmark) at the final concentrations of 200 ‒ 800 μM. Aliquots of the P. aeruginosa PAO1 suspension were then inoculated to the wells of 96-well microtiter plates to obtain a final concentration of 10^6 CFU/mL. Culture without the test peptides was used as the untreated control. After incubation at 37 ^OC for 24 h without agitation, planktonic cells were removed and the plates were gently rinsed twice with phosphate buffered saline (PBS) pH 7.4. Biofilms were then stained with 0.1% crystal violet solution (Merck, Darmstadt, Germany) for 10 minutes at room temperature. Excess stains were rinsed off with PBS pH 7.4 and the plates were left dry at 37 ^OC for 2 h. Subsequently, biofilm biomass was solubilized with 30% acetic acid and the optical density (OD) measured at 550 nm using a microplate reader (BioTek Synergy HT).

[2] = system: P. aeruginosa PAO1 established biofilms; assay: Established (24 h-preformed) biofilm assay, crystal violet staining
Method: Antibiofilm activity of the test peptides was also examined against established biofilms as follows. Aliquots of the P. aeruginosa PAO1 suspension adjusted to a final concentration of 10^6 CFU/mL were seeded into the wells of flat-bottomed 96-well microtiter plates (Nunc). Biofilms were established at 37°C for 24 h. After incubation, nonadherent planktonic cells were removed by gently washing the wells with sterile PBS pH 7.4. Preformed biofilms were then treated with the test peptides at concentrations of 200 ‒ 800 μM and incubated at 37°C for 24 h. Culture without the test peptides served as the untreated control. After the incubation, the test peptides were aspirated gently and the plates were rinsed twice with PBS pH 7.4. Biofilm biomass was subsequently quantified by 0.1% crystal violet staining as previously described.

[3] = system: P. aeruginosa PAO1; assay: Growth assay, standard plate counts; conditions: 800 µM, 24 h
Method: The effects of BmKn‒2 peptide and its derivatives on growth of P. aeruginosa PAO1 were carried out as described previously with some modifications. Bacterial suspension (10^6 CFU/mL) and the test peptides (800 μM, final concentration) were incubated at 37 ^OC at 150 rpm. Bacterial culture without the test peptides was used as the untreated control. After 24 h, bacterial concentration was evaluated. Cultures from each treatment were taken and 10-fold serial dilution was performed; 100 μL of each dilution was then spread on LB agar plates. Following incubation at 37°C for 24 h, the colonies were counted and expressed as log10 CFU/mL.

[4] = system: lasI mRNA; assay: qRT-PCR of quorum sensing-related gene lasI; conditions: 800 µM, 10 h
Method: (§2) The effects of BmKn‒22 peptide on the expression of quorum sensing‒related genes in P. aeruginosa PAO1 were assessed by qPCR. Briefly, bacterial suspension at approximately 10^7 CFU/mL was cultured in the presence or absence of the test peptide (800 μM, final concentration) at 37 ^OC for 10 h using a shaking incubator. After centrifugation at 4,500 rpm for 10 minutes, the bacterial cells were harvested and subsequently subjected to total RNA extraction using TRIzol® reagent (Invitrogen, USA) as per the manufacturer’s instruction. The concentration of the extracted RNA was measured using Nanodrop spectrophotometer (NanoDrop Technologies, USA). Thereafter, 1 μg of extracted RNA was reverse-transcribed into cDNA using Random Hexamer primer and RevertAid First Strand cDNA synthesis kit (Fermantas), which was amplified by real-time PCR. The primers for the genes lasI, lasR, RhlI, RhlR and 16S rRNA were used (Table 2). All primers were synthesized by the Integrated DNA Technology (IDT), Canada. The reaction mixture consisted of 1× AccuPower® 2X GreenStar™ qPCR Master Mix, 0.4 μmol/L each forward primer and reverse primer and 1 μL of cDNA in a final volume of 10 μL. Thermal cycles used was 95 ^OC for 2.5 min, followed by 40 cycles of 95 ^OC for 30 sec, 60 ^OC for 30 sec and 72 ^OC for 30 sec. The expression level of the target gene was normalized to 16S rRNA gene. Relative expression of the target genes was obtained from 2^‒ΔΔct.

[5] = system: rhlR mRNA; assay: qRT-PCR of quorum sensing-related gene rhlR; conditions: 800 µM, 10 h
Method: as §2

[6] = system: P. aeruginosa PAO1 biofilms; assay: Antibiofilm activity of BmKn-22 and azithromycin alone or in combination, crystal violet
Method: as §1
Briefly, P. aeruginosa PAO1 suspension (10^6 CFU/mL, final concentration) was added to the wells of flat-bottomed 96-well microtiter plates (Nunc) containing the test peptide, azithromycin (AZM; Sigma) alone or in combinations. […] Biofilm formation was employed by measuring biofilm biomass stained with crystal violet as a protocol described in previous section.

[7] = normalized to 16S rRNA, 2^-ΔΔct, untreated control = 1, mean of 2 independent experiments in quadruplicate

For FIGAIARLLSK [BmKn-22], the “Biofilm inhibition (%), biofilm formation” value ([1]; 200 µM, Exp. 1) was 27.575%, the “Biofilm inhibition (%), biofilm formation” value ([1]; 200 µM, Exp. 2) was 27.680% and the “Biofilm inhibition (%), biofilm formation” value ([1]; 200 µM, Exp. 3) was 8.419%. For the same sequence, the “Biofilm inhibition (%), biofilm formation” value ([1]; 400 µM, Exp. 1) was 20.197%, the “Biofilm inhibition (%), biofilm formation” value ([1]; 400 µM, Exp. 2) was 40.825% and the “Biofilm inhibition (%), biofilm formation” value ([1]; 400 µM, Exp. 3) was 37.257%. For the same sequence, the “reduction of P. aeruginosa biofilms” value ([1]; 800 µM, 24 h, compared with untreated control, result in words) was “marked reduction”, the “Biofilm inhibition (%), biofilm formation” value ([1]; 800 µM, Exp. 1) was 46.468% and the “Biofilm inhibition (%), biofilm formation” value ([1]; 800 µM, Exp. 2) was 53.212%. For the same sequence, the “Biofilm inhibition (%), biofilm formation” value ([1]; 800 µM, Exp. 3) was 47.945%, the “Biofilm inhibition (%), preformed biofilm” value ([2]; 200 µM, Exp. 1) was 30.458% and the “Biofilm inhibition (%), preformed biofilm” value ([2]; 200 µM, Exp. 2) was 17.360%. The “Biofilm inhibition (%), preformed biofilm” value ([2]; 200 µM, Exp. 3) was 22.328%, the “Biofilm inhibition (%), preformed biofilm” value ([2]; 400 µM, Exp. 1) was 27.005% and the “Biofilm inhibition (%), preformed biofilm” value ([2]; 400 µM, Exp. 2) was 32.202%. For the same sequence, the “Biofilm inhibition (%), preformed biofilm” value ([2]; 400 µM, Exp. 3) was 27.300%, the “Biofilm inhibition (%), preformed biofilm” value ([2]; 800 µM, Exp. 1) was 44.831% and the “Biofilm inhibition (%), preformed biofilm” value ([2]; 800 µM, Exp. 2) was 34.141%. For the same sequence, the “Biofilm inhibition (%), preformed biofilm” value ([2]; 800 µM, Exp. 3) was 53.943%, the “Bacterial growth, Log10 CFU/mL” value ([3]; 37 °C, 150 rpm, plate counts, untreated control 9.183, mean of 3 independent experiments) was 9.323 Log10 CFU/mL and the “effect on bacterial counts (growth)” value ([3]; compared with untreated control, result in words) was “no significant (P > 0.05) differences in bacterial counts”. For the same sequence, the “Bacterial growth, Log10 CFU/mL” value ([3]; Exp. 1 (untreated control 9.082)) was 9.235 Log10 CFU/mL, the “Bacterial growth, Log10 CFU/mL” value ([3]; Exp. 2 (untreated control 9.198)) was 9.292 Log10 CFU/mL and the “Bacterial growth, Log10 CFU/mL” value ([3]; Exp. 3 (untreated control 9.268)) was 9.443 Log10 CFU/mL. The “Relative mRNA expression, lasI” value [4, 7] was 0.403, the “Relative mRNA expression, lasI” value ([4]; Exp. 1) was 0.314 and the “Relative mRNA expression, lasI” value ([4]; Exp. 2) was 0.491. For the same sequence, the “mRNA expression of lasI” value ([4]; result in words) was “significantly (P < 0.05) decreased”, the “Relative mRNA expression, rhlR” value [5, 7] was 0.511 and the “Relative mRNA expression, rhlR” value ([5]; Exp. 1) was 0.408. For the same sequence, the “Relative mRNA expression, rhlR” value ([5]; Exp. 2) was 0.614, the “mRNA expression of rhlR” value ([5]; result in words) was “significantly (P < 0.05) decreased” and the biofilm reduction ([6]; BmKn-22 at 200 µM combined with 64 µg/mL azithromycin (1/2 MIC)) was “Up to 51.39%”. For the same sequence, the biofilm reduction ([6]; BmKn-22 at 400 µM combined with 64 µg/mL azithromycin (1/2 MIC)) was at most 62.05%, the biofilm reduction ([6]; BmKn-22 at 800 µM combined with 64 µg/mL azithromycin (1/2 MIC)) was 96.97% and the “Biofilm biomass (% control)” value ([6]; peptide alone 200 µM, 24 h, 37 °C, crystal violet, mean of 3 independent experiments) was 80.903 % control. For the same sequence, the “Biofilm biomass (% control)” value ([6]; peptide alone 200 µM, Exp. 1) was 94.033 % control, the “Biofilm biomass (% control)” value ([6]; peptide alone 200 µM, Exp. 2) was 82.424 % control and the “Biofilm biomass (% control)” value ([6]; peptide alone 200 µM, Exp. 3) was 66.251 % control. The “Biofilm biomass (% control)” value ([6]; peptide alone 400 µM, 24 h, 37 °C, crystal violet, mean of 3 independent experiments) was 67.309 % control, the “Biofilm biomass (% control)” value ([6]; peptide alone 400 µM, Exp. 1) was 75.858 % control and the “Biofilm biomass (% control)” value ([6]; peptide alone 400 µM, Exp. 2) was 68.773 % control. For the same sequence, the “Biofilm biomass (% control)” value ([6]; peptide alone 400 µM, Exp. 3) was 57.297 % control, the “Biofilm biomass (% control)” value ([6]; peptide alone 800 µM, 24 h, 37 °C, crystal violet, mean of 3 independent experiments) was 43.753 % control and the “Biofilm biomass (% control)” value ([6]; peptide alone 800 µM, Exp. 1) was 51.716 % control. The “Biofilm biomass (% control)” value ([6]; peptide alone 800 µM, Exp. 2) was 46.698 % control and the “Biofilm biomass (% control)” value ([6]; peptide alone 800 µM, Exp. 3) was 32.845 % control.
